Experimental data reported in a melting point compilation (Tetko et al.).

Row | melting point [°C] | SMILES
1 | 122 | Cc1c2ccccc2c(C)c2c1ccc1ccccc12
2 | 238 | C=C1C(=O)C23C4CC5C(C)(C)CCC(OC(C)=O)C5(C(=O)O4)C2C(OC(C)=O)CC1C3O (centres undefined)
3 | 137 to 138 | O=C1CC(C(=O)OCc2ccccc2)N1 (centres undefined)
4 | 42.5 | COc1ccc2c(c1)CCCN2
5 | 179 | CN1Cc2c(N)cccc2C(c2ccccc2)C1 (centres undefined)
6 | 118 | Cc1cc(C)c(C)c(O)c1C
7 | 5.9 | CCOC(=O)CCCCCCC(=O)OCC
8 | 164 to 166 | COc1ccc(C(=O)O)cc1OC1CCCC1
9 | 108 | COc1ccc([N+](=O)[O-])cn1
10 | 189 | Cc1cc(C)c(NC(=O)C(C(F)(F)F)C(F)(F)F)c(C)c1
11 | 90 | Cc1cccc(C)c1C#N
12 | 226 | NC(=O)c1cncc(Br)c1
13 | 144 to 146 | NS(=O)(=O)c1ccc(F)c2nonc12
14 | 186 | O=C1c2ccccc2C(=O)c2c(Br)cccc21
15 | 209 | Cc1nc2ccccc2n1CCc1n[nH]c(=S)o1
16 | 146 | CCOC(=O)CNc1cc(Cl)c([N+](=O)[O-])cc1[N+](=O)[O-]
17 | 112 | OCc1ccc(-c2cccs2)cc1
18 | 163 | CC(C(=O)O)N1C(=O)c2ccccc2C1=O (centres undefined)
19 | 90 | CCOC(=O)C(C)Oc1ccc(Oc2nc3ccc(Cl)cc3o2)cc1 (centres undefined)
20 | 146 to 147 | NC(Cc1ccc(F)cc1Cl)=NO
21 | 25 | CC1CCCCN1CCCOC(=O)c1ccc(Cl)c(Cl)c1 (centres undefined)
22 | 223 | CC12CCC(=O)C=C1CCC1C2C(O)CC2(C)C1CCC2(O)C(=O)CO (centres undefined)

Row | melting point [°C] | SMILES
23 | 135 to 145 | BrCC(CBr)=C(CBr)CBr
24 | -16 | Cc1ccc(C)nc1
25 | 132 to 135 | Cn1nc(-c2ccccc2)cc1N
26 | 179 to 182 | N#CCS(=O)(=O)Cc1ccc(Cl)cc1
27 | 258 | O=C1C(C(O)c2ccccc2)C(C(F)(F)F)=NN1c1ccccc1 (centres undefined)
28 | 74 | O=[N+]([O-])c1ccccc1SCl
29 | 38 | COC(=O)C1CC(=O)CN1C(=O)OC(C)(C)C (centres undefined)
30 | 54 to 56 | CCOC(=O)C1C(C)=NN=C1N (centres undefined)
31 | 80 | Cc1sc(-c2cccnc2)nc1-c1ccccc1
32 | 200 to 210 | CS(=O)(=O)C1CS(=O)(=O)CC1O (centres undefined)
33 | 75 | CCOC(=O)c1c(-c2ccc(OC)cc2)csc1N
34 | 106 | CCNC(=O)COC(=O)c1ccccc1
35 | 29 | OC1CCCCC1Cl (centres undefined)
36 | 305 to 307 | CSc1c(C#N)c(N)nc2c(/N=N/c3ccc(C(=O)O)cc3)c(N)nn12
37 | 55 to 56 | Nc1cnccc1C(F)(F)F
38 | 46 | N#Cc1cc(F)c(F)c(F)c1
39 | 173 to 176 | COc1cc(C=CC(=O)O)cc(OC)c1
40 | 97 to 99 | COc1ccc(-c2ocnc2C(=O)Cl)cc1
41 | 36.5 | Cc1ccc(O)c(C(C)C)c1
42 | 47 to 48 | Brc1ccc2sccc2c1
43 | 113 to 118 | Cc1nc(-c2ccc(-c3ccccc3)cc2)cs1
44 | 118 to 120 | CC=C1CCC2C3CCC4CC(OC(C)=O)CCC4(C)C3CCC12C (centres undefined)

Row | melting point [°C] | SMILES
45 | 96 to 98 | O=Cc1ccc(-c2ccccc2[N+](=O)[O-])o1
46 | 33 to 38 | C[Si](C)(c1ccccc1)[Si](C)(C)c1ccccc1
47 | 48 | O=S(=O)(Cl)c1c(Cl)cc(C(F)(F)F)cc1Cl
48 | 79 | Clc1ncc(Br)cn1
49 | 80 | CSC(Nc1ccccc1)=C(C#N)C#N
50 | 99 to 101 | O=C(C=Cc1ccc(-c2ccccc2)o1)c1ccco1
51 | 53 to 54 | O=C(O)c1ccccc1OC1CCOCC1
52 | 84 | Cc1cncc(C#N)c1
53 | 149 | O=C(O)COc1ccc(C(=O)c2cccs2)c(Cl)c1Cl
54 | 96 | COc1ccc2c3c(n(C)c2c1)CCCC3
55 | 110 | CC(C(=O)O)c1ccc(-c2ccccc2)c(F)c1 (centres undefined)
56 | 172 to 174 | CC(=O)c1cc2cc(Cl)cc(Cl)c2oc1=O
57 | 278 to 281 | CSc1nc2ncc(C(=O)O)c(N)n2n1
58 | 153 | CC1(C)OC(=O)C(=Cc2ccc(-c3ccccc3[N+](=O)[O-])o2)C(=O)O1
59 | 45 | COC(=O)c1ccc(Cl)c(Cl)c1
60 | 127 to 130 | NC(=S)c1ccc(Cl)cc1
61 | 180 | CN1c2ccccc2C(C)(C)C12C=Cc1cc([N+](=O)[O-])ccc1O2 (centres undefined)
62 | 162 to 166 | Cc1ccc(C(=O)NCC(=O)O)cc1
63 | 91 | COc1cc2c(cc1OC)CC2
64 | 149 | Cc1ccc2c(c1)OC(C)(c1ccc(C)cc1OC(=O)c1ccccc1)CC2(C)C (centres undefined)
65 | 142 to 143 | N#CCN1C(=O)c2ccccc2S1(=O)=O
66 | 300 | N[C@H](C(=O)O)c1ccc(F)cc1

Row | melting point [°C] | SMILES
67 | 96 to 97 | Ic1cccc2nsnc12
68 | 139 to 141 | N#Cc1cccc(-n2cccc2C=O)c1
69 | 261 | O=S1(=O)OC(c2ccc(O)c(Cl)c2)(c2ccc(O)c(Cl)c2)c2ccccc21
70 | 309 to 310 | O=C(O)c1cc2cccnc2nc1C(F)(F)F
71 | 141 | CC(O)Cn1c(=O)c2c(ncn2C)n(C)c1=O (centres undefined)
72 | 72 | O=C1Cc2c1ccc1ccccc21
73 | 179 to 182 | COc1ccc(C=CNNc2nc(C)cc(C)n2)cc1
74 | 310 to 312 | CC(=O)c1nn(-c2ccccc2)c2cc3c(cc12)c(C(C)=O)nn3-c1ccccc1
75 | 52 to 54 | COc1cc(C(C)=O)ccc1F
76 | 81 | CCOC(=O)CCC(N[P+]([O-])(OC)C(C)NC(=O)CCCCN1C(=O)c2ccccc2C1=O)C(=O)OCC (centres undefined)
77 | 328 | NCCS(=O)(=O)O
78 | 96 | Cc1cc(=O)oc(C)c1C(=O)Oc1cccc(Cl)c1
79 | 150 to 152 | CCCCOc1cc(C(N)=O)ccc1OC
80 | 259 to 261 | O=C(O)c1cccc(-c2cnco2)c1
81 | 254 | CCn1cc(C(=O)O)c(=O)c2cnc(N3CCNCC3)nc21
82 | 163 | O=Cc1ccc(O)c(O)c1O
83 | 145 | O=CC(O)CO (centres undefined)
84 | 161 to 163 | S=c1[nH]ccn1-c1cccc(Cl)c1
85 | 135 to 137 | COc1ccc(CNC(N)=S)cc1
86 | 231 | O=C(c1ccc(F)cc1)C1CCN(CCn2c(=O)[nH]c3ccccc3c2=O)CC1
87 | 260 to 262 | CN(C)c1ccc(C=Nc2n[nH]c(N=Cc3ccc(N(C)C)cc3)c2Cc2ccc(Cl)cc2)cc1
88 | 172 | O=C(O)c1cnc(Cl)c(Br)c1

Row | melting point [°C] | SMILES
89 | 168 | O=C(NNc1ccccc1)c1ccccc1
90 | -91 | CC(C)CCC(C)C
91 | 142 | O=C(C=Cc1ccccc1)c1cccc(C(=O)C=Cc2ccccc2)c1
92 | 223 to 226 | O=C1C=CC(=O)c2cc3ccccc3cc21
93 | 180 | O=C(O)c1nnn(Cc2ccccc2)c1C(=O)O
94 | 132 to 134 | O=C(CBr)c1cc(Br)cc2c1OCC2
95 | 194 | CCN(CC)c1ccc(C(=O)O)cc1
96 | 86 to 89 | O=Cc1c(Cl)ccc(Cl)c1Cl
97 | 65 | BrCC(Br)c1cccc(C(Br)CBr)c1 (centres undefined)
98 | 117 to 120 | CC(=O)Nc1ccc(F)cc1Cl
99 | 240 | O=C(Nc1ccc(Cl)cc1)c1cc(Br)ccc1O
100 | 143 to 145 | CCOC(=O)c1c(SC)nn(S(=O)(=O)c2ccc(OC)cc2)c1N
101 | 187 to 191 | O=C(O)C=C(CC(=O)O)C(=O)O
102 | 124 | COc1ccc(C(=O)NCc2cccnc2)cc1C(=O)NCc1cccnc1
103 | 175 | O=[N+]([O-])c1ccc2ncsc2c1
104 | 154 | O=C(Nc1ccccc1)c1ccccc1[N+](=O)[O-]
105 | 54 | O=Cc1cc(F)ccc1Br
106 | 128 | COc1ccc(NN=C2C(=O)OC(C)(C)OC2=O)cc1
107 | 163 to 165 | CCN(CC)c1ccc(C(c2ccc(N(CC)CC)cc2C)c2ccc(N(CC)CC)cc2C)c(C)c1

Row | SMILES | melting point [°C]
108 | CCSCc1ccccc1OC(=O)NC | 33.4
109 | N#Cc1cc(Br)c(O)c(Br)c1 | 190
110 | CCCSP(=S)(OCC)Oc1ccc(SC)cc1 (centres undefined) | -15
111 | C1CCC(P(C2CCCCC2)C2CCCCC2)CC1 | 77 to 83
112 | O=[N+]([O-])/C=C/c1cccc(/C=C/[N+](=O)[O-])c1 | 203 to 204
113 | O=C(CCl)OC(=O)CCl | 57.5
114 | CC(=O)OC1CCC2C3CCC4CC(CC(=O)O)CCC4(C)C3CCC12C (centres undefined) | 151 to 153
115 | CC12CCC(O)CC1CCC1C2CCC2(C)C(OC(=O)c3ccccc3)CCC12 (centres undefined) | 194
116 | CC12C=CC(=O)C=C1CCC1C2CCC2(C)C(O)CCC12 (centres undefined) | 165
117 | CN1C2CCCC1CC(=O)C2 | 63 to 65
118 | CC1(C)C(C=CC(=O)OC(C(F)(F)F)C(F)(F)F)C1C(=O)OC(C#N)c1cccc(Oc2ccccc2)c1 (centres undefined) | 81.5
119 | Cc1cc(CCl)c(C)cc1CCl | 132
120 | O=C1C2CC=CCC2C(=O)N1SC(Cl)(Cl)Cl (centres undefined) | 178
121 | CCN1C(=O)CC(=O)N(CC)C1=S | 106 to 109
122 | O=P(O)(O)Cc1ccccc1 | 169
123 | CC(=O)C1CCC2C3CCC4CC(N)CCC4(C)C3CCC12C (centres undefined) | 126
124 | O=C(O)C1(c2ccc(Cl)cc2)CCC1 | 80 to 90
125 | O=C(CCl)Nc1ccc(Cl)cc1 | 168 to 170
126 | Cc1cc(Cl)c([N+](=O)[O-])cc1[N+](=O)[O-] | 90
127 | O=P(OCCCl)(OCCCl)OCCCl | -35
128 | CCS(=O)(=O)Oc1ccc2c(c1)C(C)(C)CO2 | 30
129 | FC(F)(F)CCl | -106
